Experimental findings from US20240376091A1, “THIADIAZOLEAMIDE DERIVATIVES AND THEIR APPLICATIONS” (ZHEJIANG UNIVERSITY, priority 2021, published 2024) are described below.

Structures are written as SMILES.

For the experiment, the target named is T1, AR (Homo sapiens, UniProt P10275, T878A).
T1 construct: into the androgen-dependent PCa cells (LNCaP); endogenous in cells; host or cells: LNCaP-ARR2PB-eGFP
T1 sequence (P10275 1-920 T878A): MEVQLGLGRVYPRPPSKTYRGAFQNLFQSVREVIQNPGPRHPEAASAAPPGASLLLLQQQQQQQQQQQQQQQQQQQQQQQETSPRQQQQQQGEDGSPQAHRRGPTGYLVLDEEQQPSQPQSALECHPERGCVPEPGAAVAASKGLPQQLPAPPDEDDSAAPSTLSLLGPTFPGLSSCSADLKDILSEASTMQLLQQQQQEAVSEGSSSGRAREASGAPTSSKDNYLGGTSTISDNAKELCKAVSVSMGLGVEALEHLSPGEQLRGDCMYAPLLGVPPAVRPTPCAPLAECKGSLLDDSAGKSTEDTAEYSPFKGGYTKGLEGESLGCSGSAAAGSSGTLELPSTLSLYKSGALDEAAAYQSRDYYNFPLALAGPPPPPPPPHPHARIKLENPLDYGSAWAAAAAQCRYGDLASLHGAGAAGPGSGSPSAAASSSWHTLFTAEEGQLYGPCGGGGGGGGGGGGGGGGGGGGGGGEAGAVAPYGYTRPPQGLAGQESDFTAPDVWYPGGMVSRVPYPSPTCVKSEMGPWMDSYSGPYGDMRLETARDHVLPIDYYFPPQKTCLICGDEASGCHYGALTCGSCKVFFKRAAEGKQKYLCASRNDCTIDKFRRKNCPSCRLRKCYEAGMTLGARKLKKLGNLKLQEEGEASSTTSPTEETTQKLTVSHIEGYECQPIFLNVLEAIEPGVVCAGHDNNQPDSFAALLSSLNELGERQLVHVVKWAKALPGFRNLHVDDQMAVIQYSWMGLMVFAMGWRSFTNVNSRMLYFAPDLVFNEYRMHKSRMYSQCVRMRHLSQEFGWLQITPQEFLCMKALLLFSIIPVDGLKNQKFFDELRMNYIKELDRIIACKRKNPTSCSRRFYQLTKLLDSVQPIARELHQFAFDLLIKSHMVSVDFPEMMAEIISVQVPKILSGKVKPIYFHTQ
Kind of experiment: AR transcriptional activity, LNCaP-ARR2PB-eGFP reporter cells. As to conditions: read-out: IC50 AR transcriptional activities. In kind it is cell-based. An excerpt:
Detection principles: We conducted a stable transfection of promoter ARR2PB known for its strong AR responsiveness, into the androgen-dependent PCa cells (LNCaP). The expression of enhanced green fluorescent protein (eGFP) is depending on the degree of activation of AR. Therefore, LNCaP-ARR2PB-eGFP cell line could quantitatively determine the AR antagonistic activities of the compounds by evaluating the expression of eGFP.
As to `Cc1sc(-c2cccc(C(F)(F)F)c2)cc1C(=O)Nc1nc(CC(C)N(C)C)ns1` (stereo not shown) [Compound C-6, N-(3-(2-(dimethylamino)propyl)-1,2,4-thiadiazol-5-yl)-2-methyl-5-(3-(trifluoromethyl)phenyl)thiophene-3-carboxamide], the IC50 stood at 33.2 µM.
The result for `CCN(CC)C(C)Cc1nsc(NC(=O)c2cc(-c3cccc(C(F)(F)F)c3)sc2C)n1` (stereo not shown) [Compound C-7, N-(3-(2-(diethylamino)propyl)-1,2,4-thiadiazol-5-yl)-2-methyl-5-(3-(trifluoromethyl)phenyl)thiophene-3-carboxamide] reads 10.6 µM; that for `Cc1sc(-c2cccc(C#N)c2)cc1C(=O)Nc1nc(CC(C)N2CCCCC2)ns1` (stereo not shown) [Compound C-12, 5-(3-Cyanophenyl)-2-methyl-N-(3-(2-(piperidin-1-yl)propyl)-1,2,4-thiadiazol-5-yl)thiophene-3-carboxamide], 5.77 µM; that for `COc1cccc(-c2cc(C(=O)Nc3nc(CC(C)N4CCCC4)ns3)c(C)s2)c1` (stereo not shown) [Compound C-14, 5-(3-Methoxyphenyl)-2-methyl-N-(3-(2-(pyrrolidin-1-yl)propyl)-1,2,4-thiadiazol-5-yl)thiophene-3-carboxamide], 19.4 µM.
Under `Cc1sc(-c2cccc(OC(F)(F)F)c2)cc1C(=O)Nc1nc(CC(C)N2CCOCC2)ns1` (stereo not shown) [Compound C-17, 2-Methyl-N-(3-(2-morpholinopropyl)-1,2,4-thiadiazol-5-yl)-5-(3-(trifluoromethoxy)phenyl)thiophene-3-carboxamide] stands 6.17 µM; under `Cc1sc(-c2cccc(OC(F)F)c2)cc1C(=O)Nc1nc(CC(C)N2CCN(C)CC2)ns1` (stereo not shown) [Compound C-19, 5-(3-(Difluoromethoxy)phenyl)-2-methyl-N-(3-(2-(4-methylpiperazin-1-yl)propyl)-1,2,4-thiadiazol-5-yl)thiophene-3-carboxamide], 15.4 µM; under `Cc1sc(-c2cccc(C(F)(F)F)c2)cc1C(=O)Nc1nc(CC(C)O)ns1` (stereo not shown) [Compound C-20, N-(3-(2-hydroxypropyl)-1,2,4-thiadiazol-5-yl)-2-methyl-5-(3-(trifluoromethyl)phenyl)thiophene-3-carboxamide], 4.52 µM.
Under `Cc1sc(-c2cccc(C(F)(F)F)c2)cc1C(=O)Nc1nc(CC(C)(O)C(F)(F)F)ns1` (stereo not shown) [Compound C-25, 2-Methyl-N-(3-(3,3,3-trifluoro-2-hydroxy-2-methylpropyl)-1,2,4-thiadiazol-5-yl)-5-(3-(trifluoromethyl)phenyl)thiophene-3-carboxamide] stands 2.51 µM; under `CC(Cc1nsc(NC(=O)c2cc(-c3cccc(C(F)(F)F)c3)sc2C)n1)=C(F)F` [Compound C-30, N-(3-(3,3-difluoro-2-methylallyl)-1,2,4-thiadiazol-5-yl)-2-methyl-5-(3-(trifluoromethyl)phenyl)thiophene-3-carboxamide], 12.7 µM; under `Cc1sc(-c2cccc(C(F)(F)F)c2)cc1C(=O)Nc1nc(CC(C)(F)F)ns1` [Compound C-35, N-(3-(2,2-difluoropropyl)-1,2,4-thiadiazol-5-yl)-2-methyl-5-(3-(trifluoromethyl)phenyl)thiophene-3-carboxamide], 29.1 µM.
On to `Cc1sc(-c2cccc(C(F)(F)F)c2)cc1C(=O)Nc1nc(CCl)ns1` [Compound C-40, N-(3-(chloromethyl)-1,2,4-thiadiazol-5-yl)-2-methyl-5-(3-(trifluoromethyl)phenyl)thiophene-3-carboxamide], for which the IC50 worked out at 12.3 µM.
`CCN(CC)Cc1nsc(NC(=O)c2cc(-c3cccc(OC)c3)sc2C)n1` [Compound C-50, N-(3-((diethylamino)methyl)-1,2,4-thiadiazol-5-yl)-5-(3-methoxyphenyl)-2-methyl-thiophene-3-carboxamide]: the IC50 is 12.5 µM.
Under `Cc1sc(-c2cccc(OC(F)(F)F)c2)cc1C(=O)Nc1nc(CN2CCCC2)ns1` [Compound C-53, 2-Methyl-N-(3-(pyrrolidin-1-ylmethyl)-1,2,4-thiadiazol-5-yl)-5-(3-(trifluoromethoxy)phenyl)thiophene-3-carboxamide] stands 14.8 µM.
